Source: patent publication US10080748B2, “Use of flap inhibitors to reduce neuroinflammation mediated injury in the central nervous system” (Bioscience Pharma Partners, LLC, priority 2014, dated 2018)

Columns and labels:
[1] = system: rats subjected to FPI (TBI model); test: Hippocampal long-term potentiation (LTP) in slices four days after TBI (rat FPI); format: in vivo
Protocol: Craniotomy and lateral fluid percussion injury (FPI) were performed using a previously validated and published procedure. Farias S, et al. J. Neurotraum, 26, 1977-1986, 2009; Frey L. C. et al. J. Neurosci. Methods 177, 267-272, 2009. Throughout the specification animals subjected to this protocol are referred to as having a TBI since this treatment protocol is a TBI model. Briefly, rats were anesthetized with 3-5% isoflurane, isosol, VEDCO Inc., St. Joseph, Mo., via nose cone and mounted in a stereotaxic head frame. A 3 millimeter (mm) craniotomy was created and centered at 3 mm caudal to bregma and 3.5 mm left of the sagittal suture, keeping the exposed dura intact. One steel support screw was embedded in the skull on the contralateral side. A Luer-Lock hub with an inside diameter of 3.5 mm was centered over the craniotomy and bonded to the skull with cyanoacrylate adhesive and capped. Dental acrylic, Snap, Parka, Inc., Edgewood, N.J., was poured around the huh and screw. After the acrylic hardened antibiotic ointment was applied around the cap and the animals were returned to their cages. […] Moistened food pellets were provided after injury, and all animals were monitored daily for well-being and weight changes. […]
Four days after FPI or at the times indicated in the figures for CHI model animals were sacrificed and the brains were rapidly removed and immersed in ice-cold, sucrose containing cutting buffer (87 mM NaCl, 2.5 mM KCl, 7 mM MgCl2, 0.5 mM CaCl2, 1.25 mM NaH2PO4, 25 mM D-glucose, 35 mM sucrose, and 25 mM NaHCO3) for 40-60 seconds to cool the interior of the brain. […] A bipolar tungsten stimulating electrode was placed in the Schaffer collateral (SC) pathway to evoke synaptic field excitatory postsynaptic potentials (fEPSPs) recorded in the stratum radiatum using a nearby glass micropipette filled with aCSF. […]

[2] = system: rats subjected to FPI (TBI model); test: Radial arms water maze (RAWM) after TBI (rat FPI); format: in vivo
Protocol: Craniotomy and lateral fluid percussion injury (FPI) were performed using a previously validated and published procedure. Farias S, et al. J. Neurotraum, 26, 1977-1986, 2009; Frey L. C. et al. J. Neurosci. Methods 177, 267-272, 2009. Throughout the specification animals subjected to this protocol are referred to as having a TBI since this treatment protocol is a TBI model. Briefly, rats were anesthetized with 3-5% isoflurane, isosol, VEDCO Inc., St. Joseph, Mo., via nose cone and mounted in a stereotaxic head frame. A 3 millimeter (mm) craniotomy was created and centered at 3 mm caudal to bregma and 3.5 mm left of the sagittal suture, keeping the exposed dura intact. One steel support screw was embedded in the skull on the contralateral side. A Luer-Lock hub with an inside diameter of 3.5 mm was centered over the craniotomy and bonded to the skull with cyanoacrylate adhesive and capped. Dental acrylic, Snap, Parka, Inc., Edgewood, N.J., was poured around the huh and screw. After the acrylic hardened antibiotic ointment was applied around the cap and the animals were returned to their cages. The next day, approximately 15-20 hours later, animals were anesthetized with isoflurane in an induction chamber, immediately connected to the FPI apparatus, and received a 20 millisecond (ms) pulse of pressurized sterile saline at 2.7 atmospheres (atm) of pressure to simulate a moderate severity impact on the intact dural surface through the craniotomy before awakening from anesthesia. […] All animals received a subcutaneous injection of the analgesic, buprenorphine, 0.05 milligram/kilogram (mg/kg) Buprenex, prior to craniotomy, and subsequent injections every 12 hours for two days. Moistened food pellets were provided after injury, and all animals were monitored daily for well-being and weight changes.
The indole FLAP inhibitor MK-886 was prepared at a dose of 2.5 milligram/milliliter (mg/ml), dissolved in dimethyl sulfoxide (DMSO) and then diluted with 0.9% saline to 10% DMSO. The rats were briefly anesthetized with 3-3.5% isoflurane and either […] at a dose of 6 mg/kg or vehicle was administered intravenously (IV) by tail vein injection. […]
The radial arms water maze (RAWM) consists of six 50 centimeter (cm) radial arms emanating from a circular area in a 160 cm diameter tank of 20.5° C. water, surrounded by 4 walls, each with a unique pattern. […] The start arm for each trial was determined in a pseudorandom fashion with three randomized sequences of the live non-goal arms. […] Videos for each of the 30 trials per animal were analyzed using Topscan (Cleversys Inc.) tracking software for errors and perseverance duration. […]
All data shown are mean+/−standard error of the mean unless otherwise noted. Results were analyzed in SPSS 20 (IBM) or Prism 5.0 (GraphPad). […]

CC(C)c1ccc2c(c1)c(SC(C)(C)C)c(CC(C)(C)C(=O)O)n2Cc1ccc(Cl)cc1 [MK-886, 1-[(4-Chlorophenyl)methyl]-3-[(1,1-dimethylethyl)thio]-α,α-dimethyl-5-(1-methylethyl)-1H-Indole-2-propanoic acid]
LTP, % of control fEPSP slope at 58-60 min ([1]; 30 minutes post-injury): 256.13+/−8.527% | LTP, % of control fEPSP slope at 58-60 min ([1]; 30 minutes pre-injury): 242.75+/−76.94% | LTP, % of control fEPSP slope at 58-60 min ([1]; 60 minutes post-injury): 145.46+/−18.30 | initial task learning versus vehicle ([2]; Day 1, 15 swim trials, within sham group or within TBI group): no significant differences | errors per swim, last five swim trials of the reversal task ([2]; TBI animals, injection 30 minutes post-injury, Day 2): 1.26+/−0.700 | perseverance for the previous goal arm, swim 1 to swim 3 of reversal task ([2]; TBI rats, injection 30 minutes post-injury, Day 2): spent less time in the previous goal arm by swim 3 | errors per swim, last five swim trials of the reversal task ([2]; sham animals, injection 30 minutes post-injury, Day 2): 0.850+/−0.583
